In US11534412B2, “Application of totarol and pharmaceutical composition containing totarol” (Emergopharm SP. Z O.O. SP.K., priority 2017, dated 2022):

Test system: Gardnerella vaginalis - clinical strain
Assay: Determination of the MIC value of totarol, broth dilution in 96-well plates with OD and quantitative culture
Format: cell-based
Conditions: for OD, average of 3 measurements: 620 nm
Method: Test of antibacterial activity of totarol using DMI (dimethylisosorbide) as a solvent.
A suspension of 0.5 McF in physiological saline (suspension density 10^8 cfu/ml) was prepared from a 24-hour culture of a standard strain. 1 ml of the suspension was collected to 9 ml of a TSB broth ([…]). Suspensions with a dilution of 10^−6 were prepared in the described way. A suspension with a cell density of 10^5 cfu/ml was selected for further investigations. For each strain, 2 96-well plates were prepared: the first one was intended for the OD measurement, the second one—for quantitative culture on solid media. • A/ to wells B1-D1, B2-D2 and B-D 4-11, 100 µl of the broth were added; • B/ to wells B3-D3, 200 µl of the broth were added; • C/ to wells B1-D1, 1 µl of stock I was added; • D/ to wells B2-D2, 1 µl of stock II was added; • E/ to wells B3-D3, 2 µl of stock III were added. Using a multichannel pipette, 100 µl of the sample were collected from each of the B3-D3 wells and placed in wells B4-D4 (mixing by sucking the content in and letting it out for 5 times). The pipette tips were replaced and 100 µl of the content were collected from of the B4-D4 wells, and placed in wells B5-D5, mixing as previously. These operations were repeated through the wells B11-D11. The content in the B11-D11 wells was mixed, and 100 µl of the fluid were collected and discarded. This way, a series of dilutions of totarol samples in DMI in the range of 0.32% to 0.0004% was obtained. Then, 100 µl of a corresponding bacterial culture were added to the wells B, C, D 1-11. In consequence, a change in the final concentration range occurred, to 0.16%-0.0002%. Control Preparation: • Negative control: 100 µl of the broth+1 pl DMI were added to the Al well. • Positive control (I): 100 µl of the broth with the bacterial culture were added to the wells E1-G1. • Diluent positive control (II): 100 µl of the broth with the bacterial culture+1 pl DMI were added to the wells E2-G2. The OD value in the individual wells was read at the wavelength of 620 nm (read time 0). From the second 96-well plate, a culture was inoculated by a quantitative method from every dilution onto a well with a proper solid medium, and incubated for 24 h at 37° C. under aerobic or anaerobic conditions, depending on the strain. The plates were incubated under aerobic conditions or in an atmosphere of an elevated CO2 concentration (for the strains requiring it) in an incubator at 37° C. The OD was read after 8 h, 16 h, and 24 h, respectively. Before every OD measurement, the contents of the wells were mixed delicately. In parallel to the OD readout, cultures we inoculated from the second 96-well plate, from every dilution, into plates with a proper solid medium, and incubated for 24 h at 37° C., under aerobic or anaerobic conditions. For the analysis of the experimental results, an average value of the OD measurement obtained from three repetitions in the individual times (0, 8, 16, and 24 h) for the individual microbes (Gardnerella vaginalis, Streptococcus agalactiae, Enterococcus faecalis, Lactobacillus gasseri/plantarum) was taken. Additionally, the number of bacteria grown on solid media was taken into account. The results of the tests confirm the specific, concentration-dependent selectiveness, and the high antibacterial effectiveness of totarol against the pathogenic microorganisms: Gardnerella vaginalis, Streptococcus agalactiae, Enterococcus faecalis at low MIC values safe for bacteria of the Lactobacillus genus.

CC(C)c1c(O)ccc2c1CC[C@H]1C(C)(C)CCC[C@]21C [Totarol, totarol]
MIC value (G. vaginalis): 0.005% | difference in values of MIC concentrations (bacilli of the Lactobacillus genus versus Gardnerella vaginalis): approximately 10 fold | viable count by quantitative culture (cfu/ml) (totarol 0.0002%, 0 h): 1.5 × 10^5 cfu/ml | OD, average of 3 measurements (totarol 0.0002%, 0 h): 0.313 | viable count by quantitative culture (cfu/ml) (totarol 0.0002%, 8 h): 2 × 10^5 cfu/ml | OD, average of 3 measurements (totarol 0.0002%, 8 h): 0.328 | viable count by quantitative culture (cfu/ml) (totarol 0.0002%, 16 h): 2 × 10^5 cfu/ml | OD, average of 3 measurements (totarol 0.0002%, 16 h): 0.364 | viable count by quantitative culture (cfu/ml) (totarol 0.0002%, 24 h): 2.2 × 10^5 cfu/ml | OD, average of 3 measurements (totarol 0.0002%, 24 h): 0.398 | viable count by quantitative culture (cfu/ml) (totarol 0.0004%, 0 h): 2.2 × 10^5 cfu/ml | OD, average of 3 measurements (totarol 0.0004%, 0 h): 0.326 | viable count by quantitative culture (cfu/ml) (totarol 0.0004%, 8 h): 2 × 10^5 cfu/ml | OD, average of 3 measurements (totarol 0.0004%, 8 h): 0.334 | viable count by quantitative culture (cfu/ml) (totarol 0.0004%, 16 h): 4.9 × 10^5 cfu/ml | OD, average of 3 measurements (totarol 0.0004%, 16 h): 0.362 | viable count by quantitative culture (cfu/ml) (totarol 0.0004%, 24 h): 3.9 × 10^5 cfu/ml | OD, average of 3 measurements (totarol 0.0004%, 24 h): 0.390 | viable count by quantitative culture (cfu/ml) (totarol 0.0007%, 0 h): 9 × 10^4 cfu/ml | OD, average of 3 measurements (totarol 0.0007%, 0 h): 0.315 | viable count by quantitative culture (cfu/ml) (totarol 0.0007%, 8 h): 6 × 10^4 cfu/ml | OD, average of 3 measurements (totarol 0.0007%, 8 h): 0.307 | viable count by quantitative culture (cfu/ml) (totarol 0.0007%, 16 h): 2.1 × 10^5 cfu/ml | OD, average of 3 measurements (totarol 0.0007%, 16 h): 0.326 | viable count by quantitative culture (cfu/ml) (totarol 0.0007%, 24 h): 3.8 × 10^5 cfu/ml | OD, average of 3 measurements (totarol 0.0007%, 24 h): 0.346 | viable count by quantitative culture (cfu/ml) (totarol 0.0013%, 0 h): 1 × 10^5 cfu/ml | OD, average of 3 measurements (totarol 0.0013%, 0 h): 0.321 | viable count by quantitative culture (cfu/ml) (totarol 0.0013%, 8 h): 2.7 × 10^4 cfu/ml | OD, average of 3 measurements (totarol 0.0013%, 8 h): 0.314 | viable count by quantitative culture (cfu/ml) (totarol 0.0013%, 16 h): 6.2 × 10^5 cfu/ml | OD, average of 3 measurements (totarol 0.0013%, 16 h): 0.318 | viable count by quantitative culture (cfu/ml) (totarol 0.0013%, 24 h): 1.2 × 10^5 cfu/ml | OD, average of 3 measurements (totarol 0.0013%, 24 h): 0.322 | viable count by quantitative culture (cfu/ml) (totarol 0.0025%, 0 h): 1.3 × 10^5 cfu/ml | OD, average of 3 measurements (totarol 0.0025%, 0 h): 0.312 | viable count by quantitative culture (cfu/ml) (totarol 0.0025%, 8 h): 5 × 10^4 cfu/ml | OD, average of 3 measurements (totarol 0.0025%, 8 h): 0.311 | viable count by quantitative culture (cfu/ml) (totarol 0.0025%, 16 h): 5.2 × 10^4 cfu/ml | OD, average of 3 measurements (totarol 0.0025%, 16 h): 0.314 | viable count by quantitative culture (cfu/ml) (totarol 0.0025%, 24 h): 2.3 × 10^4 cfu/ml | OD, average of 3 measurements (totarol 0.0025%, 24 h): 0.317 | viable count by quantitative culture (cfu/ml) (totarol 0.005%, 0 h): 3.1 × 10^5 cfu/ml | OD, average of 3 measurements (totarol 0.005%, 0 h): 0.318 | viable count by quantitative culture (cfu/ml) (totarol 0.005%, 8 h): 0 cfu/ml | OD, average of 3 measurements (totarol 0.005%, 8 h): 0.318 | viable count by quantitative culture (cfu/ml) (totarol 0.005%, 16 h): 0 cfu/ml | OD, average of 3 measurements (totarol 0.005%, 16 h): 0.323 | viable count by quantitative culture (cfu/ml) (totarol 0.005%, 24 h): 0 cfu/ml | OD, average of 3 measurements (totarol 0.005%, 24 h): 0.327 | viable count by quantitative culture (cfu/ml) (totarol 0.01%, 0 h): 1.6 × 10^5 cfu/ml | OD, average of 3 measurements (totarol 0.01%, 0 h): 0.319 | viable count by quantitative culture (cfu/ml) (totarol 0.01%, 8 h): 0 cfu/ml | OD, average of 3 measurements (totarol 0.01%, 8 h): 0.323 | viable count by quantitative culture (cfu/ml) (totarol 0.01%, 16 h): 0 cfu/ml | OD, average of 3 measurements (totarol 0.01%, 16 h): 0.325 | viable count by quantitative culture (cfu/ml) (totarol 0.01%, 24 h): 0 cfu/ml | OD, average of 3 measurements (totarol 0.01%, 24 h): 0.328 | viable count by quantitative culture (cfu/ml) (totarol 0.02%, 0 h): 2.1 × 10^5 cfu/ml | OD, average of 3 measurements (totarol 0.02%, 0 h): 0.344 | viable count by quantitative culture (cfu/ml) (totarol 0.02%, 8 h): 0 cfu/ml | OD, average of 3 measurements (totarol 0.02%, 8 h): 0.332 | viable count by quantitative culture (cfu/ml) (totarol 0.02%, 16 h): 0 cfu/ml | OD, average of 3 measurements (totarol 0.02%, 16 h): 0.333 | viable count by quantitative culture (cfu/ml) (totarol 0.02%, 24 h): 0 cfu/ml | OD, average of 3 measurements (totarol 0.02%, 24 h): 0.334 | viable count by quantitative culture (cfu/ml) (totarol 0.04%, 0 h): 3.7 × 10^5 cfu/ml | OD, average of 3 measurements (totarol 0.04%, 0 h): 0.460 | viable count by quantitative culture (cfu/ml) (totarol 0.04%, 8 h): 0 cfu/ml | OD, average of 3 measurements (totarol 0.04%, 8 h): 0.416 | viable count by quantitative culture (cfu/ml) (totarol 0.04%, 16 h): 0 cfu/ml | OD, average of 3 measurements (totarol 0.04%, 16 h): 0.411 | viable count by quantitative culture (cfu/ml) (totarol 0.04%, 24 h): 0 cfu/ml | OD, average of 3 measurements (totarol 0.04%, 24 h): 0.379 | viable count by quantitative culture (cfu/ml) (totarol 0.08%, 0 h): 6.1 × 10^5 cfu/ml | OD, average of 3 measurements (totarol 0.08%, 0 h): 0.740 | viable count by quantitative culture (cfu/ml) (totarol 0.08%, 8 h): 0 cfu/ml | OD, average of 3 measurements (totarol 0.08%, 8 h): 0.523 | viable count by quantitative culture (cfu/ml) (totarol 0.08%, 16 h): 0 cfu/ml | OD, average of 3 measurements (totarol 0.08%, 16 h): 0.455 | viable count by quantitative culture (cfu/ml) (totarol 0.08%, 24 h): 0 cfu/ml | OD, average of 3 measurements (totarol 0.08%, 24 h): 0.441 | viable count by quantitative culture (cfu/ml) (totarol 0.16%, 0 h): 1.4 × 10^5 cfu/ml | OD, average of 3 measurements (totarol 0.16%, 0 h): 0.822 | viable count by quantitative culture (cfu/ml) (totarol 0.16%, 8 h): 0 cfu/ml | OD, average of 3 measurements (totarol 0.16%, 8 h): 0.564 | viable count by quantitative culture (cfu/ml) (totarol 0.16%, 16 h): 0 cfu/ml | OD, average of 3 measurements (totarol 0.16%, 16 h): 0.451 | viable count by quantitative culture (cfu/ml) (totarol 0.16%, 24 h): 0 cfu/ml | OD, average of 3 measurements (totarol 0.16%, 24 h): 0.438
